Experimental findings from US8263598B2, “Substituted sulfonamide compounds” (Gruenenthal GmbH, priority 2008, dated 2012) are described below.

Each structure is given as a SMILES string.

As usually defined, the inhibition is the relative decrease from the control value, in per cent.

Assay [1] concerns the target T1, B1R receptor of rats (rB1R) (Rattus norvegicus, UniProt P97583).
T1 construct: host or cells: CHO K1 cells
T1 sequence (P97583 1-337): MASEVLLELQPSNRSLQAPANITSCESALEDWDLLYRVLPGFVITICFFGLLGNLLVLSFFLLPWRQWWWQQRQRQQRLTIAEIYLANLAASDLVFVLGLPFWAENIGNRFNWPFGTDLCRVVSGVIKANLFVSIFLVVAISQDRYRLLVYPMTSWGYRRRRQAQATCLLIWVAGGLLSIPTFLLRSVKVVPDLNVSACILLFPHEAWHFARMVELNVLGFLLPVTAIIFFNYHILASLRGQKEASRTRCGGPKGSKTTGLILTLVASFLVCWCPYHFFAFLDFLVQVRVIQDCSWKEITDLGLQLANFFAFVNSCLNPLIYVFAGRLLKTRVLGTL
The assay can be described thus: FLIPR Ca2+ assay on rat bradykinin 1 receptor (CHO K1 rB1R cells). The following applies: test substance 10 μM; CHO K1 cells with B1R gene of rats; agonist Des-Arg9-bradykinin 100 nM; compared to maximum achievable inhibition. Type of assay: cell-based. The procedure: (§1) The agonistic or antagonistic action of compounds can be quantified on the bradykinin 1 receptor (B1R) of humans and rats with ectopically expressing cell lines (CHO K1 cells) and with the aid of a Ca^2+-sensitive dye (Fluo-4) in the fluorescent imaging plate reader (FLIPR). The figure in percent activation refers to the Ca^2+ signal after addition of Lys-Des-Arg^9-bradykinin (0.5 nM) and Des-Arg^9-bradykinin (100 nM). Antagonists result in a suppression of the Ca^2+ inflow after the addition of the agonist. Percent inhibition values are given in comparison to the maximum achievable inhibition.
(§2) The agonistic or antagonistic action of substances can be determined on the bradykinin 1 receptor (B1R) of humans and rats by means of the following assay.
(§3) According to this assay the Ca^2+ inflow through the channel is quantified by means of a Ca^2+-sensitive dye (Fluo-4 type, Molecular Probes Europe BV, Leiden, Netherlands), in a Fluorescent Imaging Plate Reader (FLIPR, Molecular Devices, Sunnyvale, USA). Method:
(§4) Chinese hamster ovary cells (CHO K1 cells) are used, which are stably transfected with the human B1R gene (hB1R cells, Euroscreen s.a., Gosselies, Belgium), or with the B1R gene of rats (rB1R cells, Axxam, Milan, Italy). For functional investigations these cells are plated out on black 96-well plates with a clear floor (BD Biosciences, Heidelberg, Germany) in a density of 20,000/25,000 cells/well. The cells are incubated overnight with 10 vol. % FBS (foetal bovine serum, Gibco Invitrogen GmbH, Karlsruhe, Germany) at 37° C. and 5% CO2 in a culture medium (hB1R cells: Nutrient Mixture Ham's F12, Gibco Invitrogen GmbH, Karlsruhe, Germany; rB1R cells: D-MEM/F12, Gibco Invitrogen GmbH, Karlsruhe, Germany). The following day the cells are charged for 60 minutes at 37° C. with 2.13 μM Fluo-4 (Molecular Probes Europe BV, Leiden, Netherlands) in HBSS buffer (Hank's buffered saline solution, Gibco Invitrogen GmbH, Karlsruhe, Germany) together with […] (Sigma-Aldrich, Taufkirchen, Germany) and 10 mM HEPES (Sigma-Aldrich, Taufkirchen, Germany).
(§5) The plates are then washed twice with HBSS buffer and HBSS buffer is added which additionally contains 0.1% BSA (bovine serum albumin; Sigma-Aldrich, Taufkirchen, Germany), 5.6 mM glucose and 0.05% gelatin (Merck KGaA, Darmstadt, Germany). After further incubation for 20 minutes at room temperature the plates are used for the Ca^2+ measurement in the FLIPR. The Ca^2+-dependent fluorescence is measured both before and after the addition of substances (λex=488 nm, λem=540 nm). The quantification is carried out by measuring the highest fluorescence intensity (FC, fluorescence counts) over time.
(§6) The FLIPR protocol consists of two substance additions. First of all test substances (10 μM) are pipetted onto the cells and the Ca^2+ inflow is compared with the control (hB1R: Lys-Des-Arg9-bradykinin 0.5 nM; rB1R: Des-Arg9-bradykinin 100 nM). This gives the result in percent activation referred to the Ca^2+ signal after addition of Lys-Des-Arg9-bradykinin (0.5 nM), bzw. Des-Arg9-bradykinin (100 nM). After 10 minutes' incubation 0.5 nM Lys-Des-Arg9-bradykinin (hB1R) and 100 nM Des-Arg^9-bradykinin (rB1R) are applied and the inflow of Ca^2+ is likewise determined. Antagonists lead to a suppression of the Ca^2+ inflow. The percent inhibition compared to the maximum achievable inhibition is calculated. The compounds show a good activity on both human and rat receptors.
(§7) The agonistic and antagonistic action of the compounds according to the invention on the bradykinin 1 receptor (B1R) of humans and rats were determined as described above. Antagonists lead to a suppression of the Ca^2+ inflow. The % inhibition compared to the maximum achievable inhibition was calculated.

The target in assay [2] is T2, human B1R receptor (hB1R) (Homo sapiens, UniProt P46663).
T2 construct: host or cells: CHO K1 cells
T2 sequence (P46663 1-353): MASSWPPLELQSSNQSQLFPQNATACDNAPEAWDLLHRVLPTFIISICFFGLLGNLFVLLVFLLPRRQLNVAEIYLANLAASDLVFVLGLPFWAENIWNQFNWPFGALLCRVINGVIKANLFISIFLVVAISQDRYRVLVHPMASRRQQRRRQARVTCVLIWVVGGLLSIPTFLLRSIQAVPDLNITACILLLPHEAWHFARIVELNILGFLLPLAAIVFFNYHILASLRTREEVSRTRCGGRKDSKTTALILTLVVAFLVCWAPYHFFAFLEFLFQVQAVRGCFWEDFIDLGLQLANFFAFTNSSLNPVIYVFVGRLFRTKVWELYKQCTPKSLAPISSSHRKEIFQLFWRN
The assay can be described thus: FLIPR Ca2+ assay on human bradykinin 1 receptor (CHO K1 hB1R cells). The assay is classed as cell-based. The following applies: test substance 10 μM; CHO K1 cells with human B1R gene; agonist Lys-Des-Arg9-bradykinin 0.5 nM; compared to maximum achievable inhibition. On the procedure: as §1, §2, §3, §4, §5, §6, §7

With `COc1cc(C)c(S(=O)(=O)N(C)CCOCC(=O)N2CCn3c(CN(C)C)ccc3C2c2ccccc2)c(C)c1C` (stereo not shown) [Example 1, N-(2-(2-(6-((dimethylamino)methyl)-1-phenyl-3,4-dihydropyrrolo[1,2-a]pyrazin-2(1H)-yl)-2-oxoethoxy)ethyl)-4-methoxy-N,2,3,6-tetramethylbenzene-sulfonamide], the figures for the inhibition at 10 µM in assay [1] and in assay [2] were 58% and 89%, respectively.

Take `COc1cc(C)c(S(=O)(=O)N(C)CCOCC(=O)N2CCn3cc(CN4CCCCC4)nc3C2)c(C)c1` [Example 2, 4-methoxy-N,2,6-trimethyl-N-(2-(2-oxo-2-(2-(piperidin-1-ylmethyl)-5,6-dihydroimidazo[1,2-a]pyrazin-7(8H)-yl)ethoxy)ethyl)benzenesulfonamide]: the inhibition at 10 µM in assay [1] came to 104%; in assay [2], 106%.

For `COc1cc(C)c(S(=O)(=O)N(C)CCOCC(=O)N2CCn3cnnc3C2)c(C)c1` [Example 3, N-(2-(2-(5,6-dihydro-[1,2,4]triazolo[4,3-a]pyrazin-7(8H)-yl)-2-oxoethoxy)ethyl)-4-methoxy-N,2,6-trimethylbenzenesulfonamide], the inhibition at 10 µM in assay [1] was 93%; in assay [2], 43%.

On to `O=C(C[C@@H](NS(=O)(=O)c1ccc2ccccc2c1)c1ccccc1)N1CCn2cc(CN3CCCCC3)nc2C1` [Example 4, (R)-N-(3-oxo-1-phenyl-3-(2-(piperidin-1-ylmethyl)-5,6-dihydroimidazo[1,2-a]pyrazin-7(8H)-yl)propyl)naphthalene-2-sulfonamide], for which the inhibition at 10 µM in assay [1] was 98%; in assay [2], 102%.

Regarding `O=C(C[C@@H](NS(=O)(=O)c1ccc2ccccc2c1)c1ccccc1)N1CCn2c(nc(CN3CCCCC3)c2Cl)C1` [Example 5, (R)-N-(3-(3-chloro-2-(piperidin-1-ylmethyl)-5,6-dihydroimidazo[1,2-a]pyrazin-7(8H)-yl)-3-oxo-1-phenylpropyl)naphthalene-2-sulfonamide], the figures for the inhibition at 10 µM in assay [1] and in assay [2] were 97% and 99%, respectively.

As to `COc1cc(C)c(S(=O)(=O)N(C)CCOCC(=O)N2CCn3c(nc(CN4CCCCC4)c3Cl)C2)c(C)c1` [Example 6, N-(2-(2-(3-chloro-2-(piperidin-1-ylmethyl)-5,6-dihydroimidazo[1,2-a]pyrazin-7(8H)-yl)-2-oxoethoxy)ethyl)-4-methoxy-N,2,6-trimethylbenzenesulfonamide], the inhibition at 10 µM was 99% in assay [1] and 100% in assay [2].

On to `COc1cc(C)c(S(=O)(=O)N(C)CCOCC(=O)N2CCn3c(CN4CCOCC4)ccc3C2)c(C)c1` [Example 7, 4-methoxy-N,2,6-trimethyl-N-(2-(2-(6-(morpholinomethyl)-3,4-dihydropyrrolo[1,2-a]pyrazin-2(1H)-yl)-2-oxoethoxy)ethyl)benzenesulfonamide], for which the inhibition at 10 µM in assay [1] came out at 99%; in assay [2] it was 101%.

In the case of `O=C(CC(NS(=O)(=O)c1ccc2ccccc2c1)c1ccccc1)N1CCn2c(CN3CCCC3)ccc2C1` (stereo not shown) [Example 8, N-(3-oxo-1-phenyl-3-(6-(pyrrolidin-1-ylmethyl)-3,4-dihydropyrrolo[1,2-a]pyrazin-2(1H)-yl)propyl)naphthalene-2-sulfonamide], the results for the inhibition at 10 µM in assay [1] and in assay [2] were 42% and 95%, respectively.

On to `COc1cc(C)c(S(=O)(=O)N(C)CCOCC(=O)N2CCn3c(CN4CCN(C)CC4)ccc3C2)c(C)c1` [Example 9, 4-methoxy-N,2,6-trimethyl-N-(2-(2-(6-((4-methylpiperazin-1-yl)methyl)-3,4-dihydropyrrolo[1,2-a]pyrazin-2(1H)-yl)-2-oxoethoxy)ethyl)benzenesulfonamide], for which the figures for the inhibition at 10 µM in assay [1] and in assay [2] were 102% and 101%, respectively.

With `O=C(CC(NS(=O)(=O)c1ccc2ccccc2c1)c1ccccc1)N1CCn2c(CN3CCOCC3)ccc2C1` (stereo not shown) [Example 10, N-(3-(6-(morpholinomethyl)-3,4-dihydropyrrolo[1,2-a]pyrazin-2(1H)-yl)-3-oxo-1-phenylpropyl)naphthalene-2-sulfonamide], the inhibition at 10 µM was determined as 100% in assay [1] and 97% in assay [2].

As to `COc1cc(C)c(S(=O)(=O)N(C)CCOCC(=O)N2CCn3c(CN4CCCC4)ccc3C2)c(C)c1` [Example 11, 4-methoxy-N,2,6-trimethyl-N-(2-(2-oxo-2-(6-(pyrrolidin-1-ylmethyl)-3,4-dihydropyrrolo[1,2-a]pyrazin-2(1H)-yl)ethoxy)ethyl)benzenesulfonamide], the inhibition at 10 µM stood at 102% in assay [1] and 103% in assay [2].

As for `COc1cc(C)c(S(=O)(=O)N(C)CCOCC(=O)N2CCn3c(CCCN4CCN(C)CC4)ccc3C2)c(C)c1` [Example 12, 4-methoxy-N,2,6-trimethyl-N-(2-(2-(6-(3-(4-methylpiperazin-1-yl)propyl)-3,4-dihydropyrrolo[1,2-a]pyrazin-2(1H)-yl)-2-oxoethoxy)ethyl)benzenesulfonamide], the inhibition at 10 µM in assay [1] came out at 100%; in assay [2] it was 97%.

Turning to `CN1CCN(CCCc2ccc3n2CCN(C(=O)CC(NS(=O)(=O)c2ccc4ccccc4c2)c2ccccc2)C3)CC1` (stereo not shown) [Example 13, N-(3-(6-(3-(4-methylpiperazin-1-yl)propyl)-3,4-dihydropyrrolo[1,2-a]pyrazin-2(1H)-yl)-3-oxo-1-phenylpropyl)naphthalene-2-sulfonamide], the inhibition at 10 µM was found to be 100% in assay [1] and 44% in assay [2].

Turning to `COc1cc(C)c(S(=O)(=O)N(C)CCOCC(=O)N2CCn3c(CN4CCCCC4)nnc3C2)c(C)c1` [Example 163, 4-Methoxy-N,2,6-trimethyl-N-(2-(2-oxo-2-(3-(piperidin-1-ylmethyl)-5,6-dihydro-[1,2,4]triazolo[4,3-a]pyrazin-7(8H)-yl)ethoxy)ethyl)benzenesulfonamide], the inhibition at 10 µM in assay [1] is 103%.

In the case of `O=C(C[C@@H](NS(=O)(=O)c1ccc2ccccc2c1)c1ccccc1)N1CCn2c(CN3CCCCC3)nnc2C1` [Example 164, (R)-N-(3-oxo-1-phenyl-3-(3-(piperidin-1-ylmethyl)-5,6-dihydro-[1,2,4]triazolo[4,3-a]pyrazin-7(8H)-yl)propyl)naphthalene-2-sulfonamide], the inhibition at 10 µM in assay [1] was determined as 102%.
